Patent US12371454B2, “Cyclic peptide compound having Kras inhibitory action” (priority 2019, dated 2025)
Starred links: 1 amine or outer side, 2 acyl side, 3 side chain; linkers in the order of their positions; H or OH if unused. Positions of bridges follow the written chain, without caps; N, C: chain ends. Non-standard residues stand in square brackets, D forms with d. Residues, ends and D or L forms follow the SMILES beside them. *: point of attachment. hPhe(3,5-F2-4-CF3) = N[C@@H](CCc1cc(F)c(C(F)(F)F)c(F)c1)C(=O)O; hPhe(3-Cl-4-CF3) = N[C@@H](CCc1ccc(C(F)(F)F)c(Cl)c1)C(=O)O; NMePhe(4-CF3) = CN[C@@H](Cc1ccc(C(F)(F)F)cc1)C(=O)O; hPhe(4-CF3) = N[C@@H](CCc1ccc(C(F)(F)F)cc1)C(=O)O; NMePhe(4-Cl) = CN[C@@H](Cc1ccc(Cl)cc1)C(=O)O; NMePhe(4-Me) = CN[C@@H](Cc1ccc(C)cc1)C(=O)O; NMePhe(2-Cl) = CN[C@@H](Cc1ccccc1Cl)C(=O)O; NMedβ3hAla = C[C@H](CC(=O)[*:2])N(C)[*:1]; X31 = O=C([C@H](Cc1ccc(Cl)s1)N[*:1])[*:2]; NMeGly(cPent) = CN[C@H](C(=O)O)C1CCCC1; Pro(4,4-F2) = O=C(O)[C@@H]1CC(F)(F)CN1; NMe4Pal = CN[C@@H](Cc1ccncc1)C(=O)O; NMeCha = CN[C@@H](CC1CCCCC1)C(=O)O; NMeChg = CN[C@H](C(=O)O)C1CCCCC1; NMeF = CN[C@@H](Cc1ccccc1)C(=O)O; NMeI = CC[C@H](C)[C@H](NC)C(=O)O; NMeD = CN[C@@H](CC(=O)O)C(=O)O; NMeL = CN[C@@H](CC(C)C)C(=O)O; NMeV = CN[C@H](C(=O)O)C(C)C; d(β3hA) = C[C@@H](N)CC(=O)O; NMeAbu = CC[C@H](NC)C(=O)O; NMeS = CN[C@@H](CO)C(=O)O; dNMeS = CN[C@H](CO)C(=O)O; NMeA = CN[C@@H](C)C(=O)O; NMeAib = CNC(C)(C)C(=O)O; Nle = CCCC[C@H](N)C(=O)O; Piperidide = C1CCN(*)CC1; Pyrrolidide = C1CCN(*)C1; dNMeA = CN[C@H](C)C(=O)O; Ac5c = NC1(C(=O)O)CCCC1; Aze = O=C(O)[C@@H]1CCN1; NcPrGly = O=C(O)CNC1CC1; Nleu = CC(C)CNCC(=O)O; Isopentyl = CC(C)CC*; NEtG = CCNCC(=O)O; Sar = CNCC(=O)O

The molecules below were run against T1, Kras and SOS1 (biotin-tagged human Kras loaded with GDP, His-tagged human SOS1) (Homo sapiens, UniProt P01116, G12D) (assay: Protein-protein interaction inhibition between Kras and SOS1 (KrasGl2D-SOS PPI) using AlphaScreen). Conditions: AlphaScreen; biotin-tagged human Kras loaded with GDP, His-tagged human SOS1; read-out: KRAS G12D-SOS PPI IC50.
T1 construct: made in house; host or cells: E. coli (stated for Kras only)
T1 sequence (P01116 1-188 isoform P01116-2 G12D): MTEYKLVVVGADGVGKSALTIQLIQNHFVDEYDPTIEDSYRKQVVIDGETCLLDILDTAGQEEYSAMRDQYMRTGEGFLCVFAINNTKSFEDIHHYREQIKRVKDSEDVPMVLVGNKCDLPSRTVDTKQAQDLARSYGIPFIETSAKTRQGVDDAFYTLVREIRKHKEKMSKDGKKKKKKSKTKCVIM
Type: binding
Procedure, shortened: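 Read-out is acceptor-bead light at 520-620 nm, arising when 680 nm-irradiated nickel donor beads pass singlet oxygen to streptavidin acceptors. The bead pair links His-tagged SOS1 with biotin-tagged, GDP-bound Kras from E. coli.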
In the case of CC[C@H](C)[C@@H]1NC(=O)[C@H](CC(C)C)N(C)C(=O)C[C@@H](C(=O)N2CCCCC2)NC(=O)[C@H](C(C)C)N(C)C(=O)C2(CCCC2)NC(=O)[C@@H]2CCCN2C(=O)[C@H](CCc2ccc(C(F)(F)F)c(Cl)c2)NC(=O)CN(C)C(=O)[C@H](CC2CCCCC2)N(C)C(=O)CN(C)C(=O)CN(C)C1=O [Compound 417] ([NMeL]I[Sar][Sar][NMeCha][Sar][hPhe(3-Cl-4-CF3)]P[Ac5c][NMeV]D-Piperidide; lactam N-11), the IC50 is reported as 0.015 µM.
In the case of CC[C@H](C)[C@@H]1NC(=O)[C@H](CC(C)C)N(C)C(=O)C[C@@H](C)N(C)C(=O)[C@H](C2CCCC2)N(C)C(=O)C2(CCCC2)NC(=O)[C@@H]2CC(F)(F)CN2C(=O)[C@H](CCc2cc(F)c(C(F)(F)F)c(F)c2)NC(=O)CN(C)C(=O)[C@H](Cc2ccc(C(F)(F)F)cc2)N(C)C(=O)CN(C)C(=O)CN(C)C1=O [Compound 269] (cyclo([Ac5c][NMeGly(cPent)][NMedβ3hAla][NMeL]I[Sar][Sar][NMePhe(4-CF3)][Sar][hPhe(3,5-F2-4-CF3)][Pro(4,4-F2)])), the IC50 is reported as 0.0034 µM.
Work on CCCC[C@@H]1NC(=O)[C@H](Cc2ccc(Cl)s2)NC(=O)CN(C)C(=O)[C@H](Cc2ccc(Cl)cc2)N(C)C(=O)CN(C)C(=O)CN(C)C(=O)[C@H]([C@@H](C)CC)NC(=O)[C@H](CC(C)C)N(C)C(=O)C[C@@H](C(=O)N2CCCCC2)N(C)C(=O)[C@H](CC(C)C)NC(=O)C(C)(C)N(C)C1=O [Compound 1318] ([NMeL]I[Sar][Sar][NMePhe(4-Cl)][Sar][X31][Nle][NMeAib]L[NMeD]-Piperidide; lactam N-11) yielded an IC50 of 0.078 µM.
With CC[C@H](C)[C@@H]1NC(=O)[C@H](CC(C)C)N(C)C(=O)C[C@@H](C(=O)N2CCCCC2)N(C)C(=O)[C@H](C2CCCC2)N(C)C(=O)C2(CCCC2)NC(=O)[C@@H](COCCC(C)C)N(C)C(=O)[C@H](CCc2ccc(C(F)(F)F)c(Cl)c2)NC(=O)CN(C)C(=O)[C@H](CC2CCCCC2)N(C)C(=O)[C@@H]2CCN2C(=O)[C@H](C)N(C)C1=O [Compound 1443] ([NMeL]I[NMeA][Aze][NMeCha][Sar][hPhe(3-Cl-4-CF3)][dNMeS](Isopentyl)[Ac5c][NMeGly(cPent)][NMeD]-Piperidide; lactam N-11) the IC50 was 0.023 µM.
CC(C)C[C@H]1C(=O)N[C@@H](C)C(=O)N(C)CC(=O)N(C)CC(=O)N(C)[C@@H](CC2CCCCC2)C(=O)N(C)CC(=O)N[C@@H](CCc2ccc(C(F)(F)F)c(Cl)c2)C(=O)N2CCC[C@H]2C(=O)NC2(CCCC2)C(=O)N(C)[C@@H](C2CCCCC2)C(=O)N(C)[C@H](C(=O)N2CCCCC2)CC(=O)N1C [Compound 1802] ([NMeL]A[Sar][Sar][NMeCha][Sar][hPhe(3-Cl-4-CF3)]P[Ac5c][NMeChg][NMeD]-Piperidide; lactam N-11) showed an IC50 of 0.021 µM.
Work on CC[C@H](C)[C@@H]1NC(=O)[C@H](CC(C)C)N(C)C(=O)C[C@@H](C(=O)N2CCCCC2)N(C)C(=O)[C@H](C2CCCCC2)N(C)C(=O)C2(CCCC2)NC(=O)[C@@H]2CCCN2C(=O)[C@H](CCc2ccc(C(F)(F)F)c(Cl)c2)NC(=O)CN(C)C(=O)[C@H](CO)N(C)C(=O)CN(C)C(=O)CN(C)C1=O [Compound 1687] ([NMeL]I[Sar][Sar][NMeS][Sar][hPhe(3-Cl-4-CF3)]P[Ac5c][NMeChg][NMeD]-Piperidide; lactam N-11) yielded an IC50 of 0.0042 µM.
With CC[C@H](C)[C@@H]1NC(=O)[C@H](CC(C)C)N(C)C(=O)C[C@@H](C)NC(=O)[C@H](C(C)C)N(C)C(=O)C2(CCCC2)NC(=O)[C@@H]2CCCN2C(=O)[C@H](CCc2ccc(C(F)(F)F)c(Cl)c2)NC(=O)CN(C)C(=O)[C@H](CC2CCCCC2)N(C)C(=O)CN(C)C(=O)CN(CC(C)C)C1=O [Compound 970] (cyclo([Ac5c][NMeV][d(β3hA)][NMeL]I[Nleu][Sar][NMeCha][Sar][hPhe(3-Cl-4-CF3)]P)) the IC50 was 0.25 µM.
With CC[C@H](C)[C@@H]1NC(=O)[C@H](C)N(C)C(=O)C[C@@H](C)NC(=O)[C@H](C2CCCC2)N(C)C(=O)C2(CCCC2)NC(=O)[C@@H]2CCCN2C(=O)[C@H](CCc2ccc(C(F)(F)F)c(Cl)c2)NC(=O)[C@@H](C)N(C)C(=O)[C@H](CC)N(C)C(=O)CN(C)C(=O)CN(C)C1=O [Compound 413] (cyclo([Ac5c][NMeGly(cPent)][d(β3hA)][NMeA]I[Sar][Sar][NMeAbu][dNMeA][hPhe(3-Cl-4-CF3)]P)) the IC50 was 0.05 µM.
CC[C@H](C)[C@@H]1NC(=O)[C@H](C)N(C)C(=O)C[C@@H](C(=O)N2CCCC2)NC(=O)[C@H](CC(C)C)N(C)C(=O)[C@H](Cc2ccccc2)N(C)C(=O)[C@H](CC(C)C)NC(=O)[C@H](CCc2ccc(C(F)(F)F)cc2)NC(=O)CN(C)C(=O)[C@H](Cc2ccc(Cl)cc2)N(C)C(=O)CN(C)C(=O)CN(C)C1=O [Compound 50] ([NMeA]I[Sar][Sar][NMePhe(4-Cl)][Sar][hPhe(4-CF3)]L[NMeF][NMeL]D-Pyrrolidide; lactam N-11) showed an IC50 of 0.028 µM.
In the case of CC[C@H](C)[C@@H]1NC(=O)[C@H](C)N(C)C(=O)C[C@@H](C)NC(=O)[C@H](C2CCCC2)N(C)C(=O)C2(CCCC2)NC(=O)[C@@H]2CCCN2C(=O)[C@H](CCc2ccc(C(F)(F)F)c(Cl)c2)NC(=O)[C@@H](C)N(C)C(=O)[C@H](Cc2ccccc2Cl)N(C)C(=O)CN(C)C(=O)CN(C)C1=O [Compound 539] (cyclo([Ac5c][NMeGly(cPent)][d(β3hA)][NMeA]I[Sar][Sar][NMePhe(2-Cl)][dNMeA][hPhe(3-Cl-4-CF3)]P)), the IC50 is reported as 0.19 µM.
For CC[C@H](C)[C@@H]1NC(=O)[C@H](CC(C)C)N(C)C(=O)C[C@@H](C(=O)N(C)C)N(C)C(=O)[C@H]([C@@H](C)CC)N(C)C(=O)[C@H](C)NC(=O)[C@H](Cc2ccncc2)N(C)C(=O)[C@H](CCc2ccc(C(F)(F)F)c(Cl)c2)NC(=O)CN(C)C(=O)[C@H](Cc2ccc(C)cc2)N(C)C(=O)[C@@H]2CCN2C(=O)[C@H](C)N(C)C1=O [Compound 1973] ([NMeL]I[NMeA][Aze][NMePhe(4-Me)][Sar][hPhe(3-Cl-4-CF3)][NMe4Pal]A[NMeI][NMeD]-NMe2; lactam N-11), the IC50 was 0.0071 µM.
Work on CC[C@H](C)[C@@H]1NC(=O)[C@H](C)N(C)C(=O)C[C@@H](C)NC(=O)[C@H](C2CCCC2)N(C)C(=O)C2(CCCC2)NC(=O)[C@@H]2CCCN2C(=O)[C@H](CCc2ccc(C(F)(F)F)c(Cl)c2)NC(=O)[C@@H](C)N(C)C(=O)[C@H](CC(C)C)N(C)C(=O)CN(C)C(=O)CN(C)C1=O [Compound 621] (cyclo([Ac5c][NMeGly(cPent)][d(β3hA)][NMeA]I[Sar][Sar][NMeL][dNMeA][hPhe(3-Cl-4-CF3)]P)) yielded an IC50 of 0.059 µM.
Work on CC[C@H](C)[C@@H]1NC(=O)[C@H](CC(C)C)N(C)C(=O)C[C@@H](C)NC(=O)[C@H](C(C)C)N(C)C(=O)C2(CCCC2)NC(=O)[C@@H]2CCCN2C(=O)[C@H](CCc2ccc(C(F)(F)F)c(Cl)c2)NC(=O)CN(C)C(=O)[C@H](CC2CCCCC2)N(C)C(=O)CN(C)C(=O)CN(C2CC2)C1=O [Compound 542] (cyclo([Ac5c][NMeV][d(β3hA)][NMeL]I[NcPrGly][Sar][NMeCha][Sar][hPhe(3-Cl-4-CF3)]P)) yielded an IC50 of 0.061 µM.
For CC[C@H](C)[C@@H]1NC(=O)[C@H](C)N(C)C(=O)C[C@@H](C)NC(=O)[C@H](C(C)C)N(C)C(=O)C2(CCCC2)NC(=O)[C@@H]2CCCN2C(=O)[C@H](CCc2ccc(C(F)(F)F)c(Cl)c2)NC(=O)[C@@H](C)N(C)C(=O)[C@H](CC2CCCCC2)N(C)C(=O)[C@@H]2CCCN2C(=O)CN(CC)C1=O [Compound 2014] (cyclo([Ac5c][NMeV][d(β3hA)][NMeA]I[NEtG]P[NMeCha][dNMeA][hPhe(3-Cl-4-CF3)]P)), the IC50 was 0.34 µM.
